Patent publication US20220356174A1, “PYRIDIN-2-ONE COMPOUNDS USEFUL AS SMARCA2 ANTAGONISTS” (Epizyme, Inc., priority 2018, published 2022)
Like-named read-outs stand apart in the source and are kept apart here. Values belong to the compound of their own block, whether it stands above or below them.

Assays:
[1] = biological target: T1, FL-SMARCA2 (full-length human SMARCA2 isoform 1) (Homo sapiens, UniProt P51531); assay: SMARCA2 ATPase activity assay (ADP-Glo, chicken mononucleosome substrate); assay type: biochemical; details: ATP 250 uM
T1 construct: FLAG tag (YKDDDDK) (C); made in house; host or cells: Sf21 insect cells (baculovirus, pFastBacI)
Description: Molecular Biology: Full-length human SMARCA2 isoform 1 (P51531) transcript clone was amplified from a cDNA library incorporating an N-terminal HIS tag ([…]) fused directly to Ser2 of SMARCA2 and a C-FLAG tag (YKDDDDK) fused directly to Glu1590 of SMARCA2. The amplified gene was subcloned into pFastBacI (Life Technologies).
Protein Expression: Recombinant baculovirus were generated and protein over-expression was accomplished by infecting exponentially growing Sf21 insect cell culture at 1.24×10^6 cell/ml with an MOI of 0.1. Infections were carried out for 76 hours, harvested by centrifugation, and stored at −80° C. for purification.
Expressed full-length SMARCA2 was purified from cell paste by FLAG affinity chromatography followed by anion exchange chromatography. The protein was dialyzed into a storage buffer containing 25 mM HEPES, 300 mM KCl, 10% Glycerol, pH 7.9, 1 mM TCEP and 0.01% Tween-20. The purity of the protein was measured as 74% using micro-capillary based gel electrophoresis.

FL-SMARCA4 = FL-SMARCA4 (Homo sapiens, UniProt P51532); assay: SMARCA4 ATPase activity assay (ADP-Glo, chicken mononucleosome substrate)
[2] = Table 3d.1, ATPase assay, enzyme 5 nM, chicken mononucleosome 10 nM, 30 min preincubation, read-out: FL-SMARCA2 IC>50
[3] = Table 3a.1, SMARCA2 5 nM, mononucleosome 10 nM
[4] = FL-SMARCA4 IC50, Table 3a.2, SMARCA4 5 nM, ATP 250 uM, mononucleosome 10 nM
[5] = Table 3c.1, ATPase assay, enzyme 5 nM, chicken mononucleosome 10 nM, 30 min preincubation
[6] = FL-SMARCA4 IC>50, Table 3c.2, ATPase assay, enzyme 5 nM, ATP 250 uM, chicken mononucleosome 10 nM, 30 min preincubation
[7] = Table 3.1, ATPase assay, enzyme 5 nM, chicken mononucleosome 10 nM, 30 min preincubation
[8] = FL-SMARCA4 IC50, Table 3.2, ATPase assay, enzyme 5 nM, ATP 250 uM, chicken mononucleosome 10 nM, 30 min preincubation

T1 sequence (P51531 with tags, fused parts or gaps): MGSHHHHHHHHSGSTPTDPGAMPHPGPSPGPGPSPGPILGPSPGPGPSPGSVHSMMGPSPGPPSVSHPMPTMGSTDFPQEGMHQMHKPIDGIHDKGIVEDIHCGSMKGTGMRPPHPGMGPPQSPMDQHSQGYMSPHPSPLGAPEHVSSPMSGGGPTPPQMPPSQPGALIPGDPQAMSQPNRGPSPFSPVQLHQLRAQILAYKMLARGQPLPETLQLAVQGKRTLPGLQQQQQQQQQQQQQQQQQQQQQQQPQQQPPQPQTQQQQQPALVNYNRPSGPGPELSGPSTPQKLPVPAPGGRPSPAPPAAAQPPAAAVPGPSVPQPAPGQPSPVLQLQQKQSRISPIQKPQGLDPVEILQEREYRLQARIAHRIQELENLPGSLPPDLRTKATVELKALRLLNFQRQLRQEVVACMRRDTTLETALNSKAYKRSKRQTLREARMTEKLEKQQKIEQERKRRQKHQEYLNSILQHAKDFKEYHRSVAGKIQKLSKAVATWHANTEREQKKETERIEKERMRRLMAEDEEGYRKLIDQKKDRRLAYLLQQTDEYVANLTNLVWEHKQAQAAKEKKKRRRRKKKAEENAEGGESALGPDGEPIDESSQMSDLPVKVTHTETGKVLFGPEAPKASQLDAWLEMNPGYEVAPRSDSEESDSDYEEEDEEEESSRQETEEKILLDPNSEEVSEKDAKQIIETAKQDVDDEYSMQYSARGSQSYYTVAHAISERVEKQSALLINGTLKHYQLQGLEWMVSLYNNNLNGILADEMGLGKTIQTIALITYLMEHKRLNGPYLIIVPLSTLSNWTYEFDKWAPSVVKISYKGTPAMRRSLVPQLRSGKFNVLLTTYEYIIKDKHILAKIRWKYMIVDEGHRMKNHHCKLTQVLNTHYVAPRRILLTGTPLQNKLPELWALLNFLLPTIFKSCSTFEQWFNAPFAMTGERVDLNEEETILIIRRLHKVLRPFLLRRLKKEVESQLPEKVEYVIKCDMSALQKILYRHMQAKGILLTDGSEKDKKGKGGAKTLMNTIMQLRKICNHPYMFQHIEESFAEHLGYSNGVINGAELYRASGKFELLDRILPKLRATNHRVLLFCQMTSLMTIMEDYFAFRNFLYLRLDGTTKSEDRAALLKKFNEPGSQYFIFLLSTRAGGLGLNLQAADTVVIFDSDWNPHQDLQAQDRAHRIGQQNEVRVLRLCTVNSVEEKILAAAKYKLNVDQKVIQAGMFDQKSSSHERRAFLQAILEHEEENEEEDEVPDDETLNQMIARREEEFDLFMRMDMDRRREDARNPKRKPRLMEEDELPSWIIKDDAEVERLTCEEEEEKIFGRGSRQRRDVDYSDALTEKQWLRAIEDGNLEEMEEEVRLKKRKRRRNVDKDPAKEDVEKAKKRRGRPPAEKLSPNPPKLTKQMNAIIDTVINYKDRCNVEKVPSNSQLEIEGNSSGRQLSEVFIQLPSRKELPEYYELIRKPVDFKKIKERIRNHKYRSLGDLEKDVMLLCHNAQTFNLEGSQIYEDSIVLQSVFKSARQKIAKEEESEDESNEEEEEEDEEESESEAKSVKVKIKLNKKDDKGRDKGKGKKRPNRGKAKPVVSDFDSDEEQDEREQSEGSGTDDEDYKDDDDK
Chain of FL-SMARCA4 (P51532 whole entry): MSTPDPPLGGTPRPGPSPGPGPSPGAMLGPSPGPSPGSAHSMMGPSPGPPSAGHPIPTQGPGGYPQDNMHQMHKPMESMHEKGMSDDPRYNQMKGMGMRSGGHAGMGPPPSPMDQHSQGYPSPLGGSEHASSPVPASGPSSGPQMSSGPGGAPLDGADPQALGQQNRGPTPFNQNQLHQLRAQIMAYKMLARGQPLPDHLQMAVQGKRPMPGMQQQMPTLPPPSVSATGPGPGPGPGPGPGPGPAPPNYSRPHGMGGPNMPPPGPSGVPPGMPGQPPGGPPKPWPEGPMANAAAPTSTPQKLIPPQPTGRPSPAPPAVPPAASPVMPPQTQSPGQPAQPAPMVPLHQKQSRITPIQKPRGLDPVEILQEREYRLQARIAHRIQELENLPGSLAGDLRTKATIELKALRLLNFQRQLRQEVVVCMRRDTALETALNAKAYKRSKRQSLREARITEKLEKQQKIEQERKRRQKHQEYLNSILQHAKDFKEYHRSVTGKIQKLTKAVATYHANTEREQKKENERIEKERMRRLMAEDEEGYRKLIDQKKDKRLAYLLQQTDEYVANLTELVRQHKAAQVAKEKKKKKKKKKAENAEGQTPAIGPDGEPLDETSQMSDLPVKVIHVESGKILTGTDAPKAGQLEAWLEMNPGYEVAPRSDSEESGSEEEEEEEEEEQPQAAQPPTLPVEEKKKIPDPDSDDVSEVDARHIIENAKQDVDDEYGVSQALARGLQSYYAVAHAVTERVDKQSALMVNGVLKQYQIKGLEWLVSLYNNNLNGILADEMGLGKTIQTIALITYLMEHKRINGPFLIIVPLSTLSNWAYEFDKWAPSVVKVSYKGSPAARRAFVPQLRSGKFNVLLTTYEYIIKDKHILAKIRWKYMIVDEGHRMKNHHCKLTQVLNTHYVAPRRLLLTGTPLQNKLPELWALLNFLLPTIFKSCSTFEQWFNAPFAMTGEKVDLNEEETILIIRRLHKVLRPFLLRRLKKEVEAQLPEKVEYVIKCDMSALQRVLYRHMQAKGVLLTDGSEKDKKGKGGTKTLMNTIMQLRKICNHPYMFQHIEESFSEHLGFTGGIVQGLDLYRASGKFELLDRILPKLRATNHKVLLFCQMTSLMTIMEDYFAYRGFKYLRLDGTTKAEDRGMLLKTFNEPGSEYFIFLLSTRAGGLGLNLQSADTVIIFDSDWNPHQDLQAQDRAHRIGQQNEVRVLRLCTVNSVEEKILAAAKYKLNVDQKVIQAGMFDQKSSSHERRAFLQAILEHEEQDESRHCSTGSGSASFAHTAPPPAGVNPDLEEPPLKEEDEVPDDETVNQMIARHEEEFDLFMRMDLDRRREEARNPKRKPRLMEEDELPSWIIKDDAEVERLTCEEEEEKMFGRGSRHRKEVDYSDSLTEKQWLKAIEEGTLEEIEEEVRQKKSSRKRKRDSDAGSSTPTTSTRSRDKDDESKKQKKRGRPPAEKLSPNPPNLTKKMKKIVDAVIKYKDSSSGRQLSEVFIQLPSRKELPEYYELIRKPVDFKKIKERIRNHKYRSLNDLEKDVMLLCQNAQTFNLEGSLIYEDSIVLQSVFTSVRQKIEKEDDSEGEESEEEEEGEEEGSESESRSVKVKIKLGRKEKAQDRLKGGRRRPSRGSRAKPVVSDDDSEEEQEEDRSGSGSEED

IC50 [1, 2]: > 50 µM | IC50 (FL-SMARCA4; FL-SMARCA4 IC50): > 50 µM
SMILES: CCn1c(Cl)c(NC(=O)c2cc(Cl)c(Cl)s2)ccc1=O [Compound 27d]

IC50 [1, 3]: > 50 µM | IC50 (FL-SMARCA4; [4]): > 50 µM
SMILES: CCn1cc(NC(=O)c2cccc(C)n2)ccc1=O [Compound 28a]

IC50 [1, 5]: > 50 µM | IC50 (FL-SMARCA4; [6]): > 50 µM
SMILES: NCCCn1cc(NC(=O)c2cc(F)c(Cl)s2)cc(F)c1=O [Compound 28c]

IC50 [1, 2]: > 50 µM | IC50 (FL-SMARCA4; FL-SMARCA4 IC50): > 50 µM
SMILES: CCc1cc(=O)n(CC)cc1NC(=O)c1cc(Cl)c(Cl)s1 [Compound 28d]

IC50 [1, 3]: > 50 µM | IC50 (FL-SMARCA4; [4]): > 50 µM
SMILES: CCn1cc(NC(=O)c2cnc3c(Cl)cccn23)ccc1=O [Compound 29a]

IC50 [1, 5]: 25.4 µM | IC50 (FL-SMARCA4; [6]): 41.4 µM
SMILES: CN1CCC(C#Cc2cc(C(=O)Nc3cc(F)c(=O)n(CC(F)F)c3)sc2Cl)CC1 [Compound 29c]

IC50 [1, 2]: > 50 µM | IC50 (FL-SMARCA4; FL-SMARCA4 IC50): > 50 µM
SMILES: CCn1c(F)c(NC(=O)c2cc(Cl)c(Cl)s2)ccc1=O [Compound 29d]

IC50 [1, 3]: > 50 µM | IC50 (FL-SMARCA4; [4]): > 50 µM
SMILES: CCn1cc(NC(=O)c2ccccn2)ccc1=O [Compound 30a]

IC50 [1, 5]: > 50 µM | IC50 (FL-SMARCA4; [6]): > 50 µM
SMILES: O=C(Nc1cc(-c2ncco2)c(=O)n(CC(F)F)c1)c1sc(C(F)(F)F)cc1Cl [Compound 30c]

IC50 [1, 2]: > 50 µM | IC50 (FL-SMARCA4; FL-SMARCA4 IC50): > 50 µM
SMILES: CCc1c(NC(=O)c2cc(Cl)c(Cl)s2)ccc(=O)n1CC [Compound 30d]

IC50 [1, 3]: > 50 µM | IC50 (FL-SMARCA4; [4]): > 50 µM
SMILES: CCn1cc(NC(=O)n2ncc3ccccc32)ccc1=O [Compound 31a]

IC50 [1, 5]: > 50 µM | IC50 (FL-SMARCA4; [6]): > 50 µM
SMILES: O=C(Nc1cc(-c2c[nH]cn2)c(=O)n(CC(F)F)c1)c1sc(C(F)(F)F)cc1Cl [Compound 31c]

IC50 [1, 2]: 48.1 µM | IC50 (FL-SMARCA4; FL-SMARCA4 IC50): > 50 µM
SMILES: CCn1cc(NC(=O)c2cc(Cl)c(Cl)s2)c(F)cc1=O [Compound 31d]

IC50 [1, 7]: > 50 µM | IC50 (FL-SMARCA4; [8]): > 50 µM
SMILES: CCn1nc(C(=O)Nc2ccc(=O)n(CC)c2)cc1C [Compound 32]

IC50 [1, 3]: > 50 µM | IC50 (FL-SMARCA4; [4]): > 50 µM
SMILES: CCn1cc(NC(=O)c2nc3cc(Cl)c(F)cc3[nH]2)ccc1=O [Compound 32a]

IC50 [1, 5]: 5.67 µM | IC50 (FL-SMARCA4; [6]): 12.5 µM
SMILES: NCCn1cc(NC(=O)c2cc(F)c(Cl)s2)cc(F)c1=O [Compound 32c]

IC50 [1, 2]: > 50 µM | IC50 (FL-SMARCA4; FL-SMARCA4 IC50): > 50 µM
SMILES: Cc1cc(=O)[nH]cc1NC(=O)c1ccc(C(F)(F)F)nc1C [Compound 32d]

IC50 [1, 7]: > 50 µM | IC50 (FL-SMARCA4; [8]): > 50 µM
SMILES: CCn1cc(NC(=O)c2cc(C)sc2C)ccc1=O [Compound 33]

IC50 [1, 3]: > 50 µM | IC50 (FL-SMARCA4; [4]): > 50 µM
SMILES: CCn1cc(NC(=O)c2ccc(Cl)c(Cl)n2)ccc1=O [Compound 33a]

IC50 [1, 5]: 8.9 µM | IC50 (FL-SMARCA4; [6]): 8.15 µM
SMILES: O=C(Nc1cc(F)c(=O)n(CC(F)F)c1)c1cnc(C#Cc2ccncc2)s1 [Compound 33c]

IC50 [1, 2]: > 50 µM | IC50 (FL-SMARCA4; FL-SMARCA4 IC50): > 50 µM
SMILES: Cc1nc(-c2ccc(C(=O)Nc3cc(F)c(=O)n(CC(F)F)c3)s2)cs1 [Compound 33d]

IC50 [1, 3]: > 50 µM | IC50 (FL-SMARCA4; [4]): > 50 µM
SMILES: CCn1cc(NC(=O)c2cc3c(n2C)CCC3)ccc1=O [Compound 34a]

IC50 [1, 2]: > 50 µM | IC50 (FL-SMARCA4; FL-SMARCA4 IC50): > 50 µM
SMILES: O=C(Nc1cc(F)c(=O)n(CC(F)F)c1)c1ccc(-c2ccccn2)s1 [Compound 34d]

IC50 [1, 7]: > 50 µM | IC50 (FL-SMARCA4; [8]): > 50 µM
SMILES: CCn1cc(NC(=O)c2coc(Br)n2)ccc1=O [Compound 35]

IC50 [1, 3]: > 50 µM | IC50 (FL-SMARCA4; [4]): > 50 µM
SMILES: CCn1cc(NC(=O)c2ccc(Cl)c(C)n2)ccc1=O [Compound 35a]

IC50 [1, 2]: > 50 µM | IC50 (FL-SMARCA4; FL-SMARCA4 IC50): > 50 µM
SMILES: NC(=O)c1cc(C(=O)Nc2cc(F)c(=O)n(CC(F)F)c2)sc1C(F)(F)F [Compound 35d]

IC50 [1, 7]: > 50 µM | IC50 (FL-SMARCA4; [8]): > 50 µM
SMILES: CCn1cc(NC(=O)c2nc(Br)sc2C)ccc1=O [Compound 36]

IC50 [1, 3]: > 50 µM | IC50 (FL-SMARCA4; [4]): > 50 µM
SMILES: CCn1cc(NC(=O)c2cc3ccccc3s2)ccc1=O [Compound 36a]

IC50 [1, 5]: > 50 µM | IC50 (FL-SMARCA4; [6]): > 50 µM
SMILES: O=C(Nc1cc(F)c(=O)n(CC(F)F)c1)c1cc(C2COC2)cs1 [Compound 36c]

IC50 [1, 2]: 36.5 µM | IC50 (FL-SMARCA4; FL-SMARCA4 IC50): > 50 µM
SMILES: CN(C)C(=O)c1cc(C(=O)Nc2cc(F)c(=O)n(CC(F)F)c2)sc1C(F)(F)F [Compound 36d]

IC50 [1, 7]: > 50 µM | IC50 (FL-SMARCA4; [8]): > 50 µM
SMILES: Cn1c(C(=O)Nc2ccc(=O)[nH]c2)cc(Cl)c1Cl [Compound 37]
